# Assay: Solubility in aqueous medium (buffers at pH 1.2, 4.5, 6.8)
# Assay type: physicochemical
# Conditions: Form T8 in comparison with Form A
solubility in aqueous medium (pH 4.5 (acetate buffer)),solubility in aqueous medium (pH 6.8 (phosphate buffer)),solubility in aqueous medium (pH=1.2 (HCl buffer)),Structure (SMILES)
practically insoluble,practically insoluble,practically insoluble,"O=C(/C=C\n1cnc(-c2cc(C(F)(F)F)cc(C(F)(F)F)c2)n1)NNc1cnccn1 [Form A, (Z)-3-(3-(3,5-bis(trifluoromethyl)phenyl)-1H-1,2,4-triazol-1-yl)-N′-(pyrazin-2-yl) acrylohydrazide]"
enhanced solubility,enhanced solubility,enhanced solubility,"O=C(/C=C\n1cnc(-c2cc(C(F)(F)F)cc(C(F)(F)F)c2)n1)NNc1cnccn1 [Form T8, (Z)-3-(3-(3,5-bis(trifluoromethyl)phenyl)-1H-1,2,4-triazol-1-yl)-N′-(pyrazin-2-yl) acrylohydrazide]"
